IC50 data for 29 compounds are collected here from patent publication US11597706B2, “Compounds and compositions for treating conditions associated with NLRP activity” (Novartis AG, priority 2016, dated 2023).

Structures are written as SMILES. Some results are limits rather than exact numbers.

This test addresses T1, hNLRP3 (THP-1, IL-1β) (Homo sapiens, UniProt Q96P20).
T1 construct: THP-1 cells were purchased from the American Type Culture Collection; host or cells: THP-1 cells, PMA-differentiated, stimulated with gramicidin
The experiment in a line: IL-1β production in PMA-differentiated THP-1 cells stimulated with gramicidin. Format: cell-based. The conditions noted are these: IL-1β readout. Here is the method:
IL-1β Production in PMA-Differentiated THP-1 Cells Stimulated With Gramicidin.
Cell culture-THP-1 cells were purchased from the American Type Culture Collection and sub-cultured according to instructions from the supplier. Prior to experiments, cells were cultured in RPMI 1640 containing 10% heat inactivated FBS, penicillin (100 units/ml) and streptomycin (100 μg/ml), and maintained in log phase prior to experimental setup. Prior to the experiment THP-1 were treated with PMA (Phorbol 12-myristate 13-acetate) (10 μg/ml) for 24 hours. The day of the experiment the media was removed and attaching cells were treated with trypsin for 2 minutes, cells were then collected, washed with PBS (phosphate buffer saline), spin down, resuspended in 2% heat inactivated FBS with RPMI at a concentration of 1×10^6 cells/ml, and 100 μl was plated in a 96 well plate. Cells were incubated with compounds for 1 hours and then stimulated with Gramicidin (5 μM) (Enzo) for 2 hours. Cell free supernatant was collected and the production of IL-1β was evaluated by ELISA. Compounds were dissolved in dimethyl sulfoxide (DMSO) and added to the culture medium to achieve desired concentration (e.g. 100, 30, 10, 3, 1, 0.3 or 0.1 μM). A vehicle only control was run concurrently with each experiment. Final DMSO concentration was 1%.
THP-1 cells were purchased from the American Type Culture Collection and sub-cultured according to instructions from the supplier. Prior to experiments, cells were cultured in complete RPMI 1640 (containing 10% heat inactivated FBS, penicillin (100 units/ml) and streptomycin (100 μg/ml)), and maintained in log phase prior to experimental setup. Prior to the experiment THP-1 were treated with PMA (Phorbol 12-myristate 13-acetate) (20 ng/ml) for 16-18 hours. On the day of the experiment the media was removed and adherent cells were detached with trypsin for 5 minutes. Cells were then harvested, washed with complete RPMI 1640, spun down, resuspended in RPMI 1640 (containing 2% heat inactivated FBS, penicillin (100 units/ml) and streptomycin (100 μg/ml). The cells were plated in a 384-well plate at a density of 50,000 cells/well (final assay volume 50 μl). Compounds were dissolved in dimethyl sulfoxide (DMSO) and added to the culture medium to achieve desired concentration (e.g. 100, 33, 11, 3.7, 1.2, 0.41, 0.14, 0.046, 0.015, 0.0051, 0.0017 μM). Cells were incubated with compounds for 1 hour and then stimulated with gramicidin (5 μM) (Enzo) for 2 hours. Cell free supernatant was collected and the production of IL-1β was evaluated by HTRF (cisbio). A vehicle only control was run concurrently with each experiment. Final DMSO concentration was 0.38%.

T1 sequence (Q96P20 whole entry): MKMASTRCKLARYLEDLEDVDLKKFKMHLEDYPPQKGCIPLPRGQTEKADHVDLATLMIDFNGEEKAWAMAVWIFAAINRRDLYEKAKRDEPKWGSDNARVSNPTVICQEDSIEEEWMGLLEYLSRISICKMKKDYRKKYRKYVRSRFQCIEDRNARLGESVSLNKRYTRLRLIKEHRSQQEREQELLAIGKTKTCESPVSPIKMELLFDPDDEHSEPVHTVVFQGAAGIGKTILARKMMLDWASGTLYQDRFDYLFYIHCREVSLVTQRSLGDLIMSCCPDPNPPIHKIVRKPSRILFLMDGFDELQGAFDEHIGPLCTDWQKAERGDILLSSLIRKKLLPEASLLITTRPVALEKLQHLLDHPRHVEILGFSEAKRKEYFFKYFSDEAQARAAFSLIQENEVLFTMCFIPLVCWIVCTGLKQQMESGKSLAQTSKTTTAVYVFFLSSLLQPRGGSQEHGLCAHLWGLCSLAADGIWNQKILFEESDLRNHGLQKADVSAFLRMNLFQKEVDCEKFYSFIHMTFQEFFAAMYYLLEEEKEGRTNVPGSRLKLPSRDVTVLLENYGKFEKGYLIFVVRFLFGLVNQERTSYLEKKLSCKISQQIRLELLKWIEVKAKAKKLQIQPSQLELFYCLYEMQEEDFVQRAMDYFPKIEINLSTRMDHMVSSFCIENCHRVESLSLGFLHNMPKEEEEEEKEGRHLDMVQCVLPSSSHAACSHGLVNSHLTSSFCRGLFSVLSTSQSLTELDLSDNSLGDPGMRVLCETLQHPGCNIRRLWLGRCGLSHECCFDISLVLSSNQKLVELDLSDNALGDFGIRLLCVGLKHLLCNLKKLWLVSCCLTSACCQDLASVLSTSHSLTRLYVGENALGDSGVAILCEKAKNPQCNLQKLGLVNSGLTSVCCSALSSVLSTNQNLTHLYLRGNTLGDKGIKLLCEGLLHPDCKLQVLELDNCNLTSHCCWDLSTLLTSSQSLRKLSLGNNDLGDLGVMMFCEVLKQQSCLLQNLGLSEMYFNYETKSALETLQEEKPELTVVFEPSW

As for `CC(C)(O)c1ccc(S(=O)(=O)NC(=O)Nc2c3c(cc4c2CCC4)CCC3)cn1` [Compound 166, N-(1,2,3,5,6,7-hexahydros-indacen-4-ylcarbamoyl)-6-(2-hydroxypropan-2-yl)pyridine-3-sulfonamide], for the setting “Table 2, gramicidin 5 μM”, the 50% inhibitory concentration (IC50) was less than 1000 nM. `CC(C)c1cc(F)cc(C(C)C)c1NC(=O)NS(=O)(=O)c1cc(C#N)cc(C(C)(C)O)c1` [Compound 117, 3-cyano-N-(4-fluoro-2,6-diisopropylphenylcarbamoyl)-5-(2-hydroxypropan-2-yl)benzenesulfonamide] showed a concentration for half-maximal inhibition (IC50) (Table 1, gramicidin 5 μM) of less than 1000 nM.

`CC(C)(O)c1cc(N2CCOCC2)cc(S(=O)(=O)NC(=O)Nc2c3c(cc4c2CCC4)CCC3)c1` [Compound 146]: the IC50 (Table 2, gramicidin 5 μM) was less than 1000 nM. The same measure, in the same setting: for `CC(C)c1cccc(C(C)C)c1NC(=O)NS(=O)(=O)c1ccc(C(C)(C)O)cc1` [Compound 169, N-(2,6-diisopropylphenylcarbamoyl)-4-(2-hydroxypropan-2-yl)benzenesulfonamide] the value was 1000 to 5000 nM.

Regarding `CC(C)(O)c1cccc(S(=O)(=O)NC(=O)Nc2c3c(c(F)c4c2CCC4)CCC3)c1` [Compound 111, N-(8-fluoro-1,2,3,5,6,7-hexahydros-indacen-4-ylcarbamoyl)-3-(2-hydroxypropan-2-yl)benzenesulfonamide], the IC50 (Table 1, gramicidin 5 μM) is less than 1000 nM.

For the compound `CC(C)(O)c1cc(C#N)cc(S(=O)(=O)NC(=O)Nc2c3c(cc4c2CCC4)CCC3)c1` [Compound 142], the IC50 (Table 2, gramicidin 5 μM) was less than 1000 nM. Consider `CC(C)(O)c1cc(Cl)cc(S(=O)(=O)NC(=O)Nc2c3c(c(F)c4c2CCC4)CCC3)c1` [Compound 113, 3-chloro-N-(8-fluoro-1,2,3,5,6,7-hexahydros-indacen-4-ylcarbamoyl)-5-(2-hydroxypropan-2-yl)benzenesulfonamide], for which the IC50 (Table 1, gramicidin 5 μM) is less than 1000 nM. On the same count and under the same terms, for `CC(C)c1cc(C#N)cc(C(C)C)c1NC(=O)NS(=O)(=O)c1cc(C#N)cc(C(C)(C)O)c1` [Compound 116, 3-cyano-N-(4-cyano-2,6-diisopropylphenylcarbamoyl)-5-(2-hydroxypropan-2-yl)benzenesulfonamide] the value was less than 1000 nM. `CC(C)c1cc(C#N)cc(C(C)C)c1NC(=O)NS(=O)(=O)c1cccc(C(C)(C)O)c1` [Compound 147, N-(4-cyano-2,6-diisopropylphenylcarbamoyl)-3-(2-hydroxypropan-2-yl)benzenesulfonamide] had an IC50 (Table 2, gramicidin 5 μM) of less than 1000 nM. The same measure, in the same setting: in the case of `COC(=O)c1ccc(F)c(S(=O)(=O)NC(=O)Nc2c(C(C)C)cc(Cl)cc2C(C)C)c1` [Compound 171, methyl 3-(N-(4-chloro-2,6-diisopropylphenylcarbamoyl)sulfamoyl)-4-fluorobenzoate] it was 1000 to 5000 nM. Consider `CC(C)c1cc(F)cc(C(C)C)c1NC(=O)NS(=O)(=O)c1cc(Cl)cc(C(C)(C)O)c1` [Compound 123, 3-chloro-N-(4-fluoro-2,6-diisopropylphenylcarbamoyl)-5-(2-hydroxypropan-2-yl)benzenesulfonamide], for which, for the setting “Table 1, gramicidin 5 μM”, the IC50 was less than 1000 nM. As for `CC(C)c1ccc(F)c(C(C)C)c1NC(=O)NS(=O)(=O)c1cc(N2CCOCC2)cc(C(C)(C)O)c1` [Compound 157, N-(3-fluoro-2,6-diisopropylphenylcarbamoyl)-3-(2-hydroxypropan-2-yl)-5-morpholinobenzenesulfonamide], the IC50 (Table 2, gramicidin 5 μM) was in the range of 1000 to 5000 nM. With `CC(C)(O)c1ccc(S(=O)(=O)NC(=O)Nc2c3c(cc4c2CCC4)CCC3)cc1` [Compound 167, N-(1,2,3,5,6,7-hexahydros-indacen-4-ylcarbamoyl)-4-(2-hydroxypropan-2-yl)benzenesulfonamide], the IC50 (Table 2, gramicidin 5 μM) is less than 1000 nM. Under “Table 1, gramicidin 5 μM”, `CC(C)(O)c1cc(C#N)cc(S(=O)(=O)NC(=O)Nc2c3c(c(F)c4c2CCC4)CCC3)c1` [Compound 112, 3-cyano-N-(8-fluoro-1,2,3,5,6,7-hexahydros-indacen-4-ylcarbamoyl)-5-(2-hydroxypropan-2-yl)benzenesulfonamide] yielded an IC50 of less than 1000 nM. In turn, `CC(C)c1cc(Cl)cc(C(C)C)c1NC(=O)NS(=O)(=O)c1ccc(C(C)(C)O)cc1` [Compound 162, N-(4-chloro-2,6-diisopropylphenylcarbamoyl)-4-(2-hydroxypropan-2-yl)benzenesulfonamide] registered an IC50 (Table 2, gramicidin 5 μM) of less than 1000 nM. Turning to `CC(C)(O)c1cc(F)cc(S(=O)(=O)NC(=O)Nc2c3c(c(F)c4c2CCC4)CCC3)c1` [Compound 114, 3-fluoro-N-(8-fluoro-1,2,3,5,6,7-hexahydros-indacen-4-ylcarbamoyl)-5-(2-hydroxypropan-2-yl)benzenesulfonamide], the concentration for half-maximal inhibition (IC50) (Table 1, gramicidin 5 μM) is less than 1000 nM. Under “Table 2, gramicidin 5 μM”, `CC(C)(O)c1cc(C(C)(C)O)cc(S(=O)(=O)NC(=O)Nc2c3c(cc4c2CCC4)CCC3)c1` [Compound 143] yielded an IC50 of less than 1000 nM. `CC(C)c1ccc(F)c(C(C)C)c1NC(=O)NS(=O)(=O)c1ccc(C(C)(C)O)cc1` [Compound 170, N-(3-fluoro-2,6-diisopropylphenylcarbamoyl)-4-(2-hydroxypropan-2-yl)benzenesulfonamide] had an IC50 (Table 2, gramicidin 5 μM) of 1000 to 5000 nM. Same read-out and setting: in the case of `CC(C)(O)c1ccc(S(=O)(=O)NC(=O)Nc2c3c(c(C#N)c4c2CCC4)CCC3)cc1` [Compound 164, N-(8-cyano-1,2,3,5,6,7-hexahydro-sindacen-4-ylcarbamoyl)-4-(2-hydroxypropan-2-yl)benzenesulfonamide] it was less than 1000 nM. The same measure, in the same setting: for `CC(C)c1cc(Cl)cc(C(C)C)c1NC(=O)NS(=O)(=O)c1cc(Cl)cc(C(C)(C)O)c1` [Compound 154, 3-chloro-N-(4-chloro-2,6-diisopropylphenylcarbamoyl)-5-(2-hydroxypropan-2-yl)benzenesulfonamide] the value was 1000 to 5000 nM; for `CC(C)(O)c1cc(-c2ccncc2)cc(S(=O)(=O)NC(=O)Nc2c3c(cc4c2CCC4)CCC3)c1` [Compound 149, N-(1,2,3,5,6,7-hexahydro-sindacen-4-ylcarbamoyl)-3-(2-hydroxypropan-2-yl)-5-(pyridin-4-yl)benzenesulfonamide], 1000 to 5000 nM. On the same count and under the same terms, in the case of `CC(C)c1ccc(F)c(C(C)C)c1NC(=O)NS(=O)(=O)c1cc(C#N)cc(C(C)(C)O)c1` [Compound 148, 3-cyano-N-(3-fluoro-2,6-diisopropylphenylcarbamoyl)-5-(2-hydroxypropan-2-yl)benzenesulfonamide] it was 1000 to 5000 nM; in that of `CC(C)(O)c1cc(-c2ccccc2)cc(S(=O)(=O)NC(=O)Nc2c3c(cc4c2CCC4)CCC3)c1` [Compound 151, N-(1,2,3,5,6,7-hexahydro-sindacen-4-ylcarbamoyl)-5-(2-hydroxypropan-2-yl)biphenyl-3-sulfonamide], 1000 to 5000 nM; in that of `CC(C)c1cc(C#N)cc(C(C)C)c1NC(=O)NS(=O)(=O)c1cc(Cl)cc(C(C)(C)O)c1` [Compound 138, 3-chloro-N-(4-cyano-2,6-diisopropylphenylcarbamoyl)-5-(2-hydroxypropan-2-yl)benzenesulfonamide], less than 1000 nM. `CC(C)(O)c1ccc(F)c(S(=O)(=O)NC(=O)Nc2c3c(cc4c2CCC4)CCC3)c1` [Compound 131, 1-[[2-fluoro-5-(2-hydroxypropan-2-yl)benzene]sulfonyl]-3-(1,2,3,5,6,7-hexahydro-s-indacen-4-yl)urea] registered a 50% inhibitory concentration (IC50) (Table 1, gramicidin 5 μM) of less than 1000 nM. In turn, `CC(C)(O)c1ccc(S(=O)(=O)NC(=O)Nc2c3c(c(F)c4c2CCC4)CCC3)cc1` [Compound 160, N-(8-fluoro-1,2,3,5,6,7-hexahydro-sindacen-4-ylcarbamoyl)-4-(2-hydroxypropan-2-yl)benzenesulfonamide] displayed an IC50 (Table 2, gramicidin 5 μM) of less than 1000 nM.

`CC(C)(O)c1ccc(S(=O)(=O)NC(=O)Nc2c3c(c(Cl)c4c2CCC4)CCC3)cc1` [Compound 161, N-(8-chloro-1,2,3,5,6,7-hexahydro-sindacen-4-ylcarbamoyl)-4-(2-hydroxypropan-2-yl)benzenesulfonamide] gave an IC50 (Table 2, gramicidin 5 μM) of less than 1000 nM. On the same count and under the same terms, in the case of `CC(C)c1ccc(F)c(C(C)C)c1NC(=O)NS(=O)(=O)c1cc(-c2ccccc2)cc(C(C)(C)O)c1` [Compound 153, N-(3-fluoro-2,6-diisopropylphenylcarbamoyl)-5-(2-hydroxypropan-2-yl)biphenyl-3-sulfonamide] it was 1000 to 5000 nM. Under “Table 1, gramicidin 5 μM”, `CC(C)c1cccc(C(C)C)c1NC(=O)NS(=O)(=O)c1cc(Cl)cc(C(C)(C)O)c1` [Compound 120, 3-chloro-N-(2,6-diisopropylphenylcarbamoyl)-5-(2-hydroxypropan-2-yl)benzenesulfonamide] came in with an IC50 of less than 1000 nM.

The IC50 is the concentration needed to halve the response being measured. Read a low IC50 as greater potency.
